Series [1] deals with Conditioned Avoidance Responding (Rat). The series can be described thus: Block of Conditioned Avoidance Responding (Rat) test (CAR). Type of series: in vivo. To be noted: for change in vivo at 5 mg/kg: read-out: CAR 5 mg/kg (IP) (mean % change in CAR); for Escape Loss (% failures to escape, group mean): at CAR 5 mg/kg IP. The text has this:
Block of Conditioned Avoidance Responding (Rat)
Apparatus: Rat operant chambers, housed within sound attenuated booths, both from Capden Instruments Ltd., were used in this test. The test chamber (8" H×90-3/8" W×9" D) is constructed of aluminum and plexiglass with floor grid bars of stainless-steel (1/8" O.D.) spaced 9/16" apart. A stainless-steel operation level 1-1/2" wide projects 3/4" into the chamber and is positioned 2-2/8" above the grid floor. The shock stimulus is delivered via the grid floor by a Coulbourn Instruments solid state module. The parameters of the test and the collection of data are controlled automatically.
The rats are trained for two weeks to approach criterion levels in the avoidance test (90% avoidance rate). One-hour training sessions are run at about the same time each day for four or five days a week. The training session consists of 120 trials, with the conditioned stimuli presented every 30 seconds. A trail begins with presentation of the conditioned stimuli (a light and a tone). If the rat responds by depressing the operant lever during the 15-second presentation of the conditioned stimuli, the trial is terminated and the animal is credited with a CAR. Failure to respond during the conditioned stimuli causes the presentation of the unconditioned stimulus, a 0.7 mA shock which is accompanied by a light and tone for […]. If the rat depressed the lever within the ten-second period, the shock and trial are terminated and an escape response recorded. If the rat fails to depress the lever during the UCS (shock), the trial is terminated after ten seconds of shock and the absence of a response is scored as a failure to escape. Intertrial level presses have no effect. If a rat performs at the 90% CAR level for two weeks, it is then run twice a week o the test schedule (see below) until baseline performance stabilized.
The percent change in CAR on the drug treatment day compared to vehicle pretreatment day is the key measure. The percent change (% change) in CAR is determined using the following formula:
% change CAR=((Day 2% CAR/Day 1% CAR)×100)-100
A negative number indicates a blockade of CAR, whereas a positive number would indicate increased CAR. The test results are reported as the mean % change for the group of rats. […] Failure to escape was calculated for each animal as follows:
% Failures=# of Failures to Escape/# of trials
The % failures, viz., loss of escape, is also reported as a group mean. Failures to escape are monitored closely and a session is terminated if ten failures occurred.

The target in a further series is T1, dopamine D2 receptor (Rattus norvegicus, UniProt P61169).
T1 construct: P2 fraction (synaptosomal membranes) prepared from male, Wistar rats; from tissue; host or cells: striatum of male Wistar rats, P2 fraction (synaptosomal membranes)
T1 sequence (P61169 whole entry): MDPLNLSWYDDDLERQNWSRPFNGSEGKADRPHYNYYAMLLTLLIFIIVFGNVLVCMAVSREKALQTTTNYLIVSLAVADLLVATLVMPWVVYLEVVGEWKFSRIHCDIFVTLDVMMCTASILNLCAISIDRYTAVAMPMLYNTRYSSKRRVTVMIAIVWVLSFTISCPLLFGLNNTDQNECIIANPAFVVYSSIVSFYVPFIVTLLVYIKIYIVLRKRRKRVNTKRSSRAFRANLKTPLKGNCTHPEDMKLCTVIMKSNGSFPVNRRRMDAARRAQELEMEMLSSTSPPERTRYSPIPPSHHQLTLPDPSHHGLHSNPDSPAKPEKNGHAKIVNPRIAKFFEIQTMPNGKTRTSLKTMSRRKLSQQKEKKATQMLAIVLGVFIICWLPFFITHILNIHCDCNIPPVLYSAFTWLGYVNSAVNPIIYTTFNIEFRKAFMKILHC
The series can be described thus: Receptor Binding Assay: dopamine D2 binding, 3H-spiperone, striatal P2 fraction. To be noted: 3H-spiperone 0.05 nM, 45 min at 37° C., read-out: D-2 Binding K-I. As to the method: The dopamine D2 binding activity of compounds was determined using a P2 fraction (synaptosomal membranes) prepared from male, Wistar rats. […] The data from this assay were analyzed by calculating the percent inhibition of the binding of the tritiated ligands by given concentrations of the test compound. Ki values, where given, were obtained from the logit analysis of concentration-inhibition curves.

Setting [2] is: rat, 5 mg/kg IP, negative number = blockade of CAR, -20% is the minimum for active.

Where two headings read alike, the source gives them in different places.

For the compound `CC(C)Oc1ccccc1N1CCN(Cc2cccc(CO)c2)CC1` [Compound 4, 1-(3-Hydroxymethylphenyl)methyl-4-[2-(1-methylethoxy)phenyl]-piperazine], the change in vivo at 5 mg/kg in series [1] (Rattus norvegicus, ip) was -89.2%. The “Escape Loss (% failures to escape, group mean)” value in series [1] (rat) amounted to 13%. Besides, the Ki on dopamine D2 receptor is 302 nM.
`COc1ccccc1N1CCN(Cc2cccc(C(O)c3ccccc3)c2)CC1` (stereo not drawn) [Compound 5, [3-[4-(2-Methoxyphenyl)-1-piperazinyl]methyl]-α-phenylbenzenemethanol]: the change in vivo at 5 mg/kg in series [1] (setting [2]) was -64.6%. Moreover, the “Escape Loss (% failures to escape, group mean)” value in series [1] (rat) stood at 2%. At dopamine D2 receptor, the Ki is 87 nM.
`CCC(C)(O)c1cccc(CN2CCN(c3ccccc3OC)CC2)c1` (stereo not drawn) [Compound 6, [3-[4-(2-Methoxyphenyl)-1-piperazinyl]methyl]-α-methyl-α-ethylbenzenemethanol]: in series [1] (setting [2]), the change in vivo at 5 mg/kg was -86%. Further, the “Escape Loss (% failures to escape, group mean)” value in series [1] (rat) was 2%. The Ki on dopamine D2 receptor turned out to be 198 nM.
Regarding `COc1ccccc1N1CCN(Cc2cccc(C(O)C(C)C)c2)CC1` (stereo not drawn) [Compound 7, [3-[4-(2-Methoxyphenyl)-1-piperazinyl]methyl]-α-(1-methylethyl)-benzenemethanol], the change in vivo at 5 mg/kg in series [1] (setting [2]) was -98.8%. In addition, the “Escape Loss (% failures to escape, group mean)” value in series [1] (rat) is on record as 12%. In addition, the Ki at dopamine D2 receptor came out at 90 nM.
Taken in the same sequence, the figures for `COc1ccccc1N1CCN(Cc2cccc(C(O)C3CCCCC3)c2)CC1` (stereo not drawn) [Compound 8, [3-[4-(2-Methoxyphenyl)-1-piperazinyl]methyl]-α-(cyclohexyl)-benzenemethanol] were -92.9%, 2% and 16 nM.
With `COc1ccccc1N1CCN(Cc2ccc(C(O)c3ccccc3)cc2)CC1` (stereo not drawn) [Compound 9, [4-[4-(2-Methoxyphenyl)-1-piperazinyl]methyl]-α-phenylbenzenemethanol], the change in vivo at 5 mg/kg in series [1] (setting [2]) is -99.4%. Further, the “Escape Loss (% failures to escape, group mean)” value in series [1] (rat) was 32%. In addition, the Ki at dopamine D2 receptor came to 53 nM.

Source of the values: patent US5332743A, “Benzyl and benzhydryl alcohols” (priority 1992, dated 1994).
